In brackets after ≈: the same amount, converted by molar mass.
conditions: buffer; pH 7.4; 200.0 µM

Row | Structure (SMILES) | solubility kinetic [mg/mL]
1 | COc1cc(/C=C/C(=O)OCC(=O)Nc2ccc3c(c2)OCO3)ccc1O | 0.0155 (≈ 41.7 µM)
2 | Cc1cccc(NC(=O)c2cccc(NC(=O)c3ccco3)c2)c1C | 0.0005 (≈ 1.5 µM)
3 | O=C1N(c2ccccc2)c2ccccc2C1(O)C(F)(F)F (configuration not stated) | > 0.044
4 | COc1cccc(C(=O)NC2CCNCC2)c1 | 0.0314 (≈ 134 µM)
5 | Cn1cccc1C(=O)OCC(=O)N1c2ccccc2NC(=O)C1(C)C | 0.0127 (≈ 37.2 µM)
6 | CC(=O)c1ccc(NC(=O)C(C)Sc2nnc(-c3ccncc3)n2C2CC2)cc1 (configuration not stated) | > 0.0611
7 | COc1ccc(NC(=O)C2CCCC2)cc1 | 0.0303 (≈ 138 µM)
8 | COc1ccc(CC(=O)Nc2ccccc2N2CCCC2)cc1 | 0.0416 (≈ 134 µM)
9 | CC12CCC(C[N+](C)(C)C1)C2(C)C.[I-] (configuration not stated) | > 0.0464
10 | Cc1cccc(NC(=S)N2CCC(O)CC2)c1C | 0.0365 (≈ 138 µM)
11 | COC(=O)NC1(C(F)(F)F)C(=O)Nc2c1c(=O)n(C)c(=O)n2C (configuration not stated) | 0.0473 (≈ 141 µM)
12 | CN(C)c1ccc(SC#N)cc1 | 0.0042 (≈ 23.6 µM)
13 | C#CCSc1nc(C)cc(C(=O)OCC)c1C#N | 0.0072 (≈ 27.7 µM)
14 | COc1ccc(OC(=O)C(C)N2C(=O)c3ccccc3C2=O)cc1 (configuration not stated) | 0.0333 (≈ 102 µM)
15 | Cc1cccc(C)c1NC(=O)C1CCCCN1C.Cl (configuration not stated) | > 0.0424
16 | COC(=O)c1cc(C(=O)c2ccc(C(C)(C)C)cc2)c[nH]1 | 0.0182 (≈ 63.8 µM)
17 | CC(=O)c1cccc(NC(=O)Nc2ccc3c(c2)CCC3)c1 | 0.0003 (≈ 1.02 µM)
18 | O=C(NC1CCCCCC1)c1cccc(S(=O)(=O)N2CCOCC2)c1 | 0.0065 (≈ 17.7 µM)
19 | O=C(Nc1ccccc1C(=O)Nc1ccccn1)c1cc(F)c(F)cc1Cl | < 0.0003
20 | CC(C)(C)OC(=O)N1CCCN(C(=O)Nc2ccccc2)CC1 | 0.0463 (≈ 145 µM)
21 | CN(CCN1CCOCC1)Cc1nc(-c2cccs2)no1 | 0.0445 (≈ 144 µM)
22 | Cc1ccc(NC(=O)C=NOCC(=O)Nc2cc(C)cc(C)c2)cc1 | 0.0035 (≈ 10.3 µM)

Row | Structure (SMILES) | solubility kinetic [mg/mL]
23 | CC1=NN(C(N)=S)C(C)(C)C1 | > 0.0257
24 | CC(C)c1ccc(C(CC(=O)O)N2Cc3ccccc3C2=O)cc1 (configuration not stated) | > 0.0485
25 | CCNC(=O)COC(=O)/C=C/c1cccs1 | > 0.0359
26 | COC(=O)Nc1ccc(S(=O)(=O)Nc2ncccn2)cc1 | > 0.0462
27 | C#CC(CC)(CC)NC(=O)c1ccc(Br)s1 | 0.0186 (≈ 62 µM)
28 | Nc1c(C(=O)OCC(=O)NCc2ccccc2)[nH]c(=O)[nH]c1=O | 0.0289 (≈ 90.8 µM)
29 | Cc1ccc(C2SCC(=O)N2Cc2ccccc2)cc1 (configuration not stated) | 0.0219 (≈ 77.3 µM)
30 | Cc1cc(NC(=O)COC(=O)C2CC(=O)N(c3ccccc3)C2)no1 (configuration not stated) | > 0.0515
31 | Cc1ccc(OCCn2cc(C(=O)O)c3ccccc32)cc1 | 0.0443 (≈ 150 µM)
32 | Cc1cccc(C(=O)O/N=C(\N)CS(=O)(=O)c2ccccc2)c1 | 0.0016 (≈ 4.81 µM)
33 | CC(C)c1ccc(N(C)C(=O)Cc2c(C(=O)O)n(C)c3ccccc23)cc1 | > 0.0547
34 | COc1ccc(CNC(=O)C2CCCC2)cc1 | 0.0286 (≈ 123 µM)
35 | O=C(/C=C/c1cccs1)c1ccc([N+](=O)[O-])cc1 | 0.0019 (≈ 7.33 µM)
36 | O=C1CSC(=S)N1c1ccc(F)c(Cl)c1 | 0.0013 (≈ 4.97 µM)
37 | COC(=O)c1ccccc1SCc1csc(C)n1 | 0.0387 (≈ 139 µM)
38 | Cn1c(SCC(=O)Nc2ccccc2[N+](=O)[O-])nnc1C(F)(F)F | > 0.0542
39 | COc1ccc(Cl)cc1NC(=O)Cn1c(=O)oc2ccccc21 | 0.0012 (≈ 3.61 µM)
40 | CC(=O)Nc1ccc(CCc2nc3ccccc3[nH]2)cc1 | > 0.0419
41 | CC(=O)c1cc2c(cc1NS(=O)(=O)c1ccc(F)cc1)OCO2 | < 0.0007
42 | NC(=O)c1cccc(CS(=O)(=O)c2ccc(Cl)cc2)c1 | 0.0164 (≈ 52.9 µM)
43 | COCCNC(=S)NCc1cccs1 | 0.0319 (≈ 138 µM)
44 | Cc1cc(C(=O)N2CCC(C(=O)O)CC2)c(C)o1 | > 0.0377

Row | Structure (SMILES) | solubility kinetic [mg/mL]
45 | Cc1cccnc1NC(=O)CCc1c[nH]c2ccccc12 | > 0.0419
46 | CN(C)CCOC1c2ccccc2CSc2ccccc21.O=CO (configuration not stated) | 0.0467
47 | COc1cccc(-c2nc(NCc3cccnc3)c3ccccc3n2)c1O | 0.0003 (≈ 0.837 µM)
48 | CCOC(=O)C(=CNc1ccc2c(c1)CCN2C(C)=O)C(=O)OCC | 0.0099 (≈ 28.6 µM)
49 | Cc1ccc(F)cc1NC(=O)N1c2ccccc2NC(=O)CC1C (configuration not stated) | 0.0427 (≈ 130 µM)
50 | Cc1ccc(C(=O)COC(=O)c2cccc([N+](=O)[O-])c2)s1 | 0.0071 (≈ 23.3 µM)
51 | C=CCn1c(SCc2ccc(C(=O)O)cc2)nc2sc(C)c(C)c2c1=O | > 0.058
52 | CCC(C)Nc1nc2c(c(=O)[nH]c(=O)n2C)n1CCOc1ccccc1 (configuration not stated) | 0.0198 (≈ 55.4 µM)
53 | CC(=O)c1cc(CN2CCN(C(C)C)C(CCO)C2)cs1 (configuration not stated) | 0.0357 (≈ 115 µM)
54 | COc1ccc(-n2ccc3ccccc32)cc1 | < 0.0005
55 | O=c1[nH]sc2cc(F)ccc12 | 0.0227 (≈ 134 µM)
56 | CCCOc1ccc(C(=O)NCCN2CCOCC2)cc1.Cl | > 0.0493
57 | CCCCC(=O)NNC(=O)N1c2ccccc2Sc2ccccc21 | > 0.0512
58 | C=CCn1c([O-])c(C(C)=O)c(=O)[nH]c1=O.C[NH+](C)C | > 0.0404
59 | Cc1ccc(NC(=O)CCNC(=O)c2ccco2)cc1Cl | 0.0203 (≈ 66.2 µM)
60 | Cc1nc2ccccc2nc1Nc1cccc(Cl)c1 | 0.0202 (≈ 74.9 µM)
61 | Cc1ccc(C2=NOC(=O)/C2=C\c2ccc(C)o2)cc1 | 0.0363 (≈ 136 µM)
62 | N=c1oc2ccccc2cc1C(=O)NCc1ccccc1 | 0.0067 (≈ 24.1 µM)
63 | Cc1ccc2c(c1)C1(OCCCO1)C(=O)N2 | > 0.0329
64 | CC(C)CCC(C)NC(=O)Cc1ccc(S(=O)(=O)N2CCOCC2)s1 (configuration not stated) | 0.047 (≈ 121 µM)
65 | O=C(Nc1nc2c(Cl)cccc2s1)C1CC1 | 0.0013 (≈ 5.14 µM)
66 | O=C(C(=O)N1CCOCC1)c1cn(Cc2ccccc2)c2ccccc12 | 0.0064 (≈ 18.4 µM)

Row | Structure (SMILES) | solubility kinetic [mg/mL]
67 | Cc1ccc(C(=O)N2CCCCC2C(=O)O)o1 (configuration not stated) | > 0.0356
68 | COc1ccc(CCC(C)N2CCc3ccccc3C2)cc1 (configuration not stated) | 0.0391 (≈ 132 µM)
69 | COc1ccc(NC(=S)N2CCC(Cc3ccccc3)CC2)cc1 | 0.0047 (≈ 13.8 µM)
70 | O=C(NCCN1CCCCC1)Nc1ccc(F)cc1 | 0.0374 (≈ 141 µM)
71 | Cc1csc(NC(=O)CSc2[nH]c(=O)ncc2C)n1 | > 0.0445
72 | COC(=O)CSc1ncc(S(=O)(=O)c2ccccc2)c(=O)[nH]1 | > 0.0511
73 | O=C(NCCc1csc(-c2ccccc2)n1)c1ccccc1F | 0.0402 (≈ 123 µM)
74 | NS(=O)(=O)c1cc2c(cc1C(F)(F)F)NC(Cc1ccccc1)NS2(=O)=O (configuration not stated) | > 0.0632
75 | O=C(NCCCCNC(=O)c1ccccc1F)c1ccccc1F | > 0.0499
76 | CN(C)C(=O)c1ccc(NC(=O)COC(=O)C2(c3ccccc3)CCCC2)cc1 | 0.0243 (≈ 61.6 µM)
77 | CC1(C)Cc2c(sc3nc(SCC(=O)O)nc(N)c23)CO1 | > 0.0488
78 | Cn1cc(CCCC(=O)NCc2ccccc2)c2ccccc21 | 0.0292 (≈ 95.3 µM)
79 | COc1ccc2c(c1)CC/C2=N\OC(=O)c1ccccc1C | < 0.0006
80 | O=C(/C=C/c1cccs1)c1ccc(N2CCOCC2)cc1 | 0.0048 (≈ 16 µM)
81 | CCN(Cc1ccccc1)C(=O)CN1C(=O)c2ccccc2C1=O | > 0.0484
82 | O=C(O)c1cccc(Nc2nc3ccccc3nc2NS(=O)(=O)c2ccc(F)cc2)c1 | > 0.0658
83 | Cc1ccc(-c2nc3ccccc3c(=O)o2)cc1 | 0.0012 (≈ 5.06 µM)
84 | Cc1ccc2oc(C(=O)N3CCN(C)C[C@@H]3C(C)C)c(C)c2c1 | 0.0343 (≈ 109 µM)
85 | COc1ccc(CNC(=O)C2CCN(S(C)(=O)=O)CC2)cc1 | 0.0452 (≈ 138 µM)
86 | COC(=O)c1cc(NC(=O)c2cccc(F)c2)cc(C(=O)OC)c1 | 0.0007 (≈ 2.11 µM)
87 | O=C(COc1ccccc1)N1CCCC1 | 0.0267 (≈ 130 µM)

— PubChem BioAssay AID1996
